From US8987316B2, “Isocyanate and isothiocyanate compounds for cancer treatment” (priority 2011, dated 2015)

Experiments:
Breast tumors (MAXF 401) = assay: Breast tumor MAXF 401 xenograft in nude mice, T/C value and mortality; type: in vivo; details: ip twice weekly over 5 weeks
Protocol: (§1) All the tests were carried out using female nude mice under standard conditions for the keeping of animals with controlled illumination and temperature. The animals were given water and food as desired.
(§2) Breast tumors (MAXF 401) were implanted subcutaneously into the rear members of the mice aged 10 weeks. The increase in the volume of the individual tumors was measured using microcallipers, and the size of the tumor was calculated according to the formula a*b^2/2 (where a is the largest diameter of the tumor and b is the vertical axis). When the tumor volume had increased to 80-120 mm^3, the animals were allocated at random into test groups of in each case 6 animals.
The test compound (in the form of sodium salts) was dissolved in a saline solution, and 5% Klucel (hydroxypropylcellulose) was added in order to dissolve the test compound in the carrier. The compound was administered by intraperitoneal injection. A volume of 10 ml/kg body weight was injected. […] The tumor volume and the body weight were checked twice weekly, and the relative tumor volumes were calculated as the […]. […]
On the basis of the relative tumor volumes of the animals treated with the test compound compared with the tumor volumes of the controls treated only with the carrier, the T/C values were calculated and were used as the index of anti-tumor activity. […]

[1] = Necrotic changes in the kidneys of treated animals; type: in vivo, nude mice; details: affected animals/animals
Protocol: as §1
No necrotic changes were found in the kidneys of the animals treated with the compound according to the invention. This confirms the excellent tolerability profile of the compounds according to the invention.

MAXF-401 xenograft tumor = assay: Dose-dependent anti-tumor activity in the MAXF-401 xenograft tumor model; type: in vivo
Protocol: as §2
The anti-tumor activity of the substance of Example 2a (sodium salt) was tested in a xenograft tumor panel. Therefore, xenografts of human tumors derived from the mentioned cancers were implanted in nude mice. The implantation and the determination of tumor volumes were carried out as described hereinbefore. Groups of 5 to 8 animals were used. The test compound was administered by ip injection twice weekly in the mentioned doses in the form of the sodium salt as an aqueous solution.
Therein, the anti-tumor activity of the compound of Example 2a (sodium salt) was examined in the MAXF-401 xenograft tumor model in the nude mouse. Subcutaneous implantation of the tumor and the determination of the tumor volume was carried out as described hereinbefore. The test compound was administered by ip injection twice weekly in the mentioned doses in the form of the sodium salt as an aqueous solution over a period of 4 weeks. […] A dose of 100 mg/kg was determined as the threshold dose, ≧200 mg/kg as the ED90 of the anti-tumor activity.

[2] = test system: CXF280 xenograft tumor (colon carcinoma); assay: Dose-dependent anti-tumor activity in the CXF280 colon carcinoma xenograft model; type: in vivo
Protocol: as §2
The anti-tumor activity of the compound of Example 2a was thereby determined in the CXF280 xenograft tumor model in the nude mouse. Subcutaneous implantation of the tumor and the determination of tumor volumes were carried out as described hereinbefore. The test substance was administered by ip injection twice weekly in the mentioned doses in the form of the sodium salt as an aqueous solution, over a period of 4 weeks. Groups of in each case 8 animals were used.

[3] = MAXF-401, ip twice weekly over 4 weeks, sodium salt

In the case of `O=C(O)CCOc1ccc(C(=O)c2ccc(N=C=S)cc2)cc1` [Example 2a], the T/C value (Breast tumors (MAXF 401); MAXF 401 breast tumor, sodium salt, ratio of tumor size treated/untreated, 100% would be no activity) is reported as 1.7, the Mortality (Breast tumors (MAXF 401); dead animals/animals in the group) is reported as 0/6 and the Acute single-cell necrosis [1] is reported as 0/9. For the same molecule, the Focal tubular necrosis [1] was 0/9, the tolerability (MAXF-401 xenograft tumor; MAXF-401, dose range used) was “well tolerated” and the “tumor response under therapy” value (MAXF-401 xenograft tumor; MAXF-401, dose ≧200 mg/kg) was “remission of the tumors was observed”. The “ED90 of the anti-tumor activity” value (MAXF-401 xenograft tumor; [3]) was ≥ 200 mg/kg, the “threshold dose of the anti-tumor activity” value (MAXF-401 xenograft tumor; [3]) was 100 mg/kg and the “tumor growth inhibition and remission” value ([2]; CXF280, dose group of 200 mg/kg and 300 mg/kg) was “complete inhibition of tumor growth and the induction of remissions to obliteration of the tumor”. The tolerability ([2]; CXF280, dose range used) was “well tolerated”, the “weight loss in the animals” value ([2]; CXF280, dose range used) was “not associated with a significant weight loss” and the anti-tumor action ([2]; CXF280, doses of 100, 200 or 300 mg/kg ip twice weekly over 4 weeks) was “pronounced anti-tumor action”. It also gave an ED90 doses ([2]; CXF280, ip twice weekly over 4 weeks) of 200 mg/kg.
